# Where two headings read alike, the source gives them in different places.
# Columns and labels:
# HCC1806 = experiment: MTT cytotoxicity assay, HCC1806; type: cell-based; settings: Homo sapiens, HCC1806, 72 h
# Procedure: All cell lines were obtained from the American Type Culture Collection (ATCC) and cultured in the specified medium supplemented with 10% fetal bovine serum, 100 IU/mL penicillin, and 100 μg/mL streptomycin at 37°C in a humidified 5% CO2/95% air incubator. Synthesis of new compounds is described in S1 File, and >95% purity of RA475, Up284 and its analogs were confirmed by NMR and MS. To assess drug cytotoxicity, cells were seeded at 2,500 cells/well (10,000 cells/well for MM lines) in 100 μL medium in 96-well plate as triplicates and after 24 h treated with compounds for a further 72 h. To assess cytotoxicity, the cells were incubated for 2 h at 37°C according to the manufacturer’s protocol with the Thiazolyl Blue Tetrazolium Bromide (20 μL/well of 5 mg/mL stock solution in water) (Sigma, M5655) and A570 measured using a Benchmark Plus microplate spectrophotometer (BIO-RAD). IC50 was estimated using Graphpad Prism 7 software.
# [1] = system: high molecular weight polyubiquitinated proteins in SKOV3 cells; experiment: Anti-ubiquitin immunoblot, SKOV3; type: cell-based; settings: Up284 and RA475 0.5 and 1 μM, RA190 1 μM
# Excerpt: Cell lysate prepared in MPER (Pierce) from each sample was normalized by total protein concentration using the bicinchoninic acid assay and bovine serum albumin standards. Normalized samples were subjected to SDS-PAGE, transferred to PVDF membranes and analyzed by Western blot using antibodies specific to ubiquitin (P4D1, sc-8017, Santa Cruz), PARP (#9542, […]), actin (#66009, Protein Tech Group), Tubulin(#66031, Protein Tech Group), ADRM1/RPN13 (D9Z1U, #12019, Cell Signaling), USP14 (Cell Signal, # 8159), Annexin V (#559763, BD Pharmingen), and for secondary antibodies we utilized either horseradish peroxidase (HRP)-linked anti-mouse IgG or anti-rabbit IgG (GE Healthcare UK Ltd), HRP-linked streptavidin (N100, Thermo Fisher) at the recommended dilution (1:5000).
# Accumulation of high molecular weight polyubiquitinated proteins (polyUb) is a classical phenomenon of proteasome function inhibition due to the stabilization of its substrate.
# Fig 3 Impact of RA475 on proteasome function. […] Actin was used as loading control. […] C) 4T1 and HCC1806 cells stably expressing 4UbFL were treated with compounds at indicated doses for 4 h and imaged by IVIS200 after the addition of luciferin substrate (50 μL, 7mg/mL in PBS). […] After a 4 h incubation, the cells were lysed and the luciferase activity in each cell lysate was determined with a luciferase assay kit (Promega) according to the manufacturer’s instructions. Bioluminescence was measured by using a luminometer (Glomax Multidetection system, Promega) E) A patch was shaved of hair on one leg of CD-1 mice, and 10 μg 4UbFL plasmid in 20 μL of PBS was injected into the quadriceps femoralis muscle followed immediately by injection of the 2 Needle Array to 5 mm depth encompassing the injection site and square wave electroporation (ElectroSquarePorator 833, BTX-2 Needle array 5mm gap, Harvard apparatus) delivered as eight pulses at 106V for 20 ms with 200 ms intervals. […] Equally sized areas were analyzed using Living Image 2.20 software. […]
# 4UbFL in ES2 cells = experiment: 4UbFL reporter assay, ES2; type: cell-based, human; settings: 4 h; for 4UbFL stabilization, fold over DMSO: ES2, 1.25 μM; for 4UbFL bioluminescence, luminometer: ES2 stably expressing 4UbFL
# Procedure: Sub-confluent cultures of cells were transfected with 4UbFL plasmid using TransIT 2020 reagent (Mirus Bio). Cells were seeded at 10,000 cells/well in 96-well plates 48 h post transfection, and incubated with compounds or vehicle (DMSO) at the doses and for the times indicated. Luciferase activity in cell lysate was determined with a luciferase assay kit (Promega) according to the manufacturer’s instructions. Bioluminescence was measured using a Glomax Multidetection system (Promega).
# Fig 3 Impact of RA475 on proteasome function. […] Actin was used as loading control. […] C) 4T1 and HCC1806 cells stably expressing 4UbFL were treated with compounds at indicated doses for 4 h and imaged by IVIS200 after the addition of luciferin substrate (50 μL, 7mg/mL in PBS). D) Sub-confluent cultures of ES2 cells stably expressing 4UbFL were seeded at 10,000 cells/well in 96-well microtiter plates. At 18 h post transfection, cells were treated with compounds or vehicle (DMSO) at the doses indicated. After a 4 h incubation, the cells were lysed and the luciferase activity in each cell lysate was determined with a luciferase assay kit (Promega) according to the manufacturer’s instructions. Bioluminescence was measured by using a luminometer (Glomax Multidetection system, Promega) E) A patch was shaved of hair on one leg of CD-1 mice, and 10 μg 4UbFL plasmid in 20 μL of PBS was injected into the quadriceps femoralis muscle followed immediately by injection of the 2 Needle Array to 5 mm depth encompassing the injection site and square wave electroporation (ElectroSquarePorator 833, BTX-2 Needle array 5mm gap, Harvard apparatus) delivered as eight pulses at 106V for 20 ms with 200 ms intervals. One day post electroporation, mice were anesthetized with isoflurane, injected IP with luciferin (0.3 mg in 100 μL water) and optical imaging was performed to determine basal level luciferase expression. Images were acquired for 10 min with a Xenogen IVIS 200 (Caliper, Hopkinton, MA). Equally sized areas were analyzed using Living Image 2.20 software. Mice were imaged weekly during treatment. Mice were randomized into three groups (n = 5) and treated IP once with Vehicle (25% (w/v) β-Hydroxypropylcyclodextrin in water, Sigma Aldrich) alone, RA475 (40 mg/Kg) or Up284 (40 mg/Kg) and mice were imaged again at 4 h, 24 h, 48 h, 72 h and 96 h later. F) Same as in E but RA475 (40mg/Kg) and ixazomib (10mg/Kg, recommended dose) were delivered orally. Thick line indicates median measurements. P-values are results based on Wilcoxon rank sum test for pairwise comparisons to vehicle cohort at each time point with multiplicity adjustment.
# Firefly Luciferase (FL) is a stable protein in cells, but when fused with four molecules of ubiquitin (4Ub) it is targeted for rapid degradation by proteasomes. […]
# [2] = Kinetic aqueous solubility in PBS pH 7.4; type: physicochemical; settings: 25 °C, pH 7.4, aqueous buffer, kinetic from dmso stock
# Procedure: Kinetic solubility assays were performed according to Enamine’s aqueous solubility SOP. Briefly, using a 20 mM stock solution of the compound in 100% DMSO dilutions were prepared to a theoretical concentration of 400 μM in duplicates in phosphate-buffered saline pH 7.4 (138 mM NaCl, 2.7 mM KCl, 10 mM K-phosphate) with 2% final DMSO. The experimental compound dilutions in PBS were further allowed to equilibrate at 25°C on a thermostatic shaker for two hours and then filtered through HTS filter plates using a vacuum manifold. The filtrates of test compounds were diluted 2-fold with acetonitrile with 2% DMSO before measuring. In parallel, using a 20 mM stock solution of the compound in 100% DMSO dilutions were prepared to theoretical concentrations of 0 μM (blank), 10 μM, 25 μM, 50 μM, 100 μM, and 200 μM in 50% acetonitrile/PBS with 2% final DMSO to generate calibration curves. Ondansetron was used as a reference compound to control proper assay performance. 200 μL of each sample was transferred to a 96-well plate and measured in the 230–550 nm range with a 5 nm step. The concentrations of compounds in PBS filtrate are calculated using a dedicated Microsoft Excel calculation script. Proper absorbance wavelengths for calculations are selected for each compound manually based on absorbance maximums (absolute absorbance unit values for the minimum and maximum concentration points within the 0–3 OD range). Each final dataset is visually evaluated by the operator, and goodness of fit (R^2) is calculated for each calibration curve.
solubility at 2 h [2] [µM],SMILES,IC50 (HCC1806) [nM],accumulation of high molecular weight polyubiquitinated proteins [1],"4UbFL stabilization, fold over DMSO (4UbFL in ES2 cells) [fold]","4UbFL bioluminescence, luminometer (4UbFL in ES2 cells)","solubility at 2 h ([2]; kinetic, 2% DMSO, 25°C, 2 h, read-out: PBS solubility, pH 7.4, Incubation 1) [µM]","solubility at 2 h ([2]; kinetic, 2% DMSO, 25°C, 2 h, read-out: PBS solubility, pH 7.4, Incubation 2) [µM]","solubility at 2 h ([2]; kinetic, 2% DMSO, 25°C, 2 h, read-out: PBS solubility, pH 7.4, Mean) [µM]"
,"Cl.Cl.N#Cc1ccc(/C=C2/C(=O)/C(=C/c3ccc(C#N)cc3)C23CCN(C(=N)N)CC3)cc1 [RA475, 1,3-bis((E)-4-cyanobenzylidene)-2-oxo-7-azaspiro[3.5]nonane-7-carboximidamide dihydrochloride]",113,robust accumulation of polyUb in dose dependent manner,> 20,dose-dependent increase in bioluminescence,136,138,137
37,"N#Cc1ccc(/C=C2/C(=O)/C(=C/c3ccc(C#N)cc3)C23CCNCC3)cc1 [Up284, reference compound]",140,robust accumulation of polyUb,> 20,dose-dependent increase in bioluminescence,,,
